These results are taken from patent publication US5459150A, “Indole derivatives which inhibit leukotriene biosynthesis” (Abbott Laboratories, priority 1993, dated 1995).

Broadly, the IC50 is the point on the concentration scale where inhibition reaches its midpoint.

Each structure is given as a SMILES string. Structures can show the parent of a compound that is named as a salt.

For experiment [1], the system named is LTB4 biosynthesis in human polymorphonuclear leukocytes (PMNL). Kind of experiment: Inhibition of LTB4 biosynthesis in human PMNL (calcium ionophore A23187-induced). The note with it: for IC50: A23187 8.3 μM, 15 min preincubation; for Human PMNL, inhibition of LTB4 biosynthesis, % @ 1.6: @ 1.6 (μM). The experiment is classed as cell-based. The method, then:
(§1) Inhibition of leukotriene biosynthesis by representative compounds of the present invention was evaluated in assays involving calcium ionophore-induced LTB4 biosynthesis expressed by human polymorphonuclear leukocytes (PMNL) or human whole blood. Human PMNL were isolated from heparinized (20 USP units/mL) venous blood using Ficoll-Hypaque Mono-Poly Resolving Medium. Human PMNL suspensions (5×10^6 cells/250 μL) were preincubated with test compounds or vehicle for 15 min at 37° C. followed by calcium ionophore A23187 challenge (final concentration of 8.3 μM) and the reaction terminated after 10 rain by adding two volumes of methanol containing prostaglandin B2 as an internal recovery standard. The methanol extracts were analyzed for LTB4 content by HPLC or radioimmunoassay.

Experiment [2] concerns LTB4 biosynthesis in human whole blood. As to the kind of experiment: Inhibition of LTB4 biosynthesis in human whole blood (calcium ionophore A23187-induced). The note with it: human heparinized whole blood, A23187, 30 min at 37° C. The class given is cell-based. The method, then:
as §1
The assay using human heparinized whole blood was incubated for 30 minutes at 37° C. after adding […] of ionophore A23187. The plasma layer was obtained by centrifugation and deproteinized by the addition of four volumes of methanol. The methanol extract was analyzed for LTB4 by HPLC or radioimmunoassay.

For experiment [3], the system named is leukotriene biosynthesis. As to the kind of experiment: Inhibition of leukotriene biosynthesis in vivo, rat peritoneal anaphylaxis model. Particulars: one hour prior to antigen challenge. The method, then: Inhibition of the biosynthesis of leukotrienes in vivo after oral administration of compound was determined using a rat peritoneal anaphylaxis model in a similar manner as that described by Young and coworkers (Young, P. R.; Dyer, R. D.; Carter, G. W. Fed. Proc., Fed. Am. Soc. Exp. Biol. 1985, 44, 1185). In this model rats were injected intraperitoneally (ip) with rabbit antibody to bovine serum albumin (BSA) and three hours later injected ip with BSA to induce an antigen-antibody response. Rats were sacrificed 15 minutes after this challenge and the peritoneal fluids were collected and analyzed for leukotriene levels. Test compounds were administered by garage one hour prior to the antigen challenge. Percent inhibition values were determined by comparing the treatment group to the mean of the control group. Compounds of this invention are orally effective in preventing the in vivo bio-synthesis of leukotrienes as illustrated for representative examples shown in Table 2.

For the molecule `CC(C)c1ccc2c(c1)c(SC(C)(C)C)c([C@@H]1C[C@H]1CN(O)C(N)=O)n2Cc1ccc(Cl)cc1` (relative stereo) [Example 14, N-hydroxy-N-[trans-2-(1-(4-chlorophenylmethyl)-3-(1,1-dimethylethylthio)-5-(1-methylethyl)indol-2-yl)cyclopropyl]methylurea], in experiment [1] (@ 0.78 (μM)), the “Human PMNL, inhibition of LTB4 biosynthesis, % @ 0.78” value is given as 40%. For the same molecule, the IC50 in experiment [2] (Homo sapiens, 0.5 h) was 2.5 µM.

For `CC(C)c1ccc2c(c1)c(SC(C)(C)C)c([C@@H]1C[C@H]1CNC(N)=O)n2Cc1ccc(Cl)cc1` (relative stereo) [Example 23, N-[trans-2-(1-(4-chlorophenylmethyl)-3-(1,1-dimethylethylthio)-5-(1-methylethyl)indol-2-yl)cyclopropyl]methyl urea], the half-maximal inhibitory concentration (IC50) in experiment [1] was 0.4 µM; in experiment [2] (Homo sapiens, 0.5 h), 2.7 µM.

In the case of `CC(C)c1ccc2c(c1)c(SC(C)(C)C)c(CC(C)(C)NC(=O)N(C)O)n2Cc1ccc(Cl)cc1` [Example 1], the IC50 in experiment [1] is 0.15 µM; in experiment [2] (Homo sapiens, 0.5 h), 1.3 µM.

Turning to `CC(C)c1ccc2c(c1)c(SC(C)(C)C)c(CC(C)(C)C=NO)n2Cc1ccc(Cl)cc1` [Example 2, 2,2-dimethyl-3-[1-(4-chlorophenylmethyl)-3-(1,1-dimethylethylthio)-5-(1-methylethyl)indol-2-yl]propionaldehyde oxime], the IC50 in experiment [1] turned out to be 0.27 µM; in experiment [2] (Homo sapiens, 0.5 h), 2.2 µM. The “Percent Leukotriene inhibition at 100 μmol/kg oral dose” value (from here on “Percent Leukotriene inhibition”) in experiment [3] is listed as 46%.

Turning to `CC(C)c1ccc2c(c1)c(SC(C)(C)C)c(CC(C)(C)CN(O)C(N)=O)n2Cc1ccc(Cl)cc1` [Example 3, N-hydroxy-N-2,2-dimethyl-3-[(1-(4-chlorophenylmethyl)-3-(1,1-dimethylethylthio)-5-(1-methylethyl))indol-2-yl]propyl urea], the IC50 in experiment [1] came to 0.17 µM; in experiment [2] (Homo sapiens, 0.5 h), 1.6 µM. Also, in experiment [3], the “Percent Leukotriene inhibition” value came to 68%.

In the case of `CC(C)c1ccc2c(c1)c(SC(C)(C)C)c(CCNC(=O)N(C)O)n2Cc1ccc(Cl)cc1` [Example 4, N'-hydroxy-N'methyl-N-2-[(1-(4-chlorophenylmethyl)-3-(1,1-dimethylethylthio)-5-(1-methylethyl))indol-2-yl]ethyl urea], the IC50 in experiment [1] was determined as 0.57 µM; in experiment [2] (Homo sapiens, 0.5 h) it was 6.7 µM.

Take `CC(C)c1ccc2c(c1)c(SC(C)(C)C)c(CC(C)(C)CNC(N)=O)n2Cc1ccc(Cl)cc1` [Example 5, N-2,2-dimethyl-3-[(1-(4-chlorophenylmethyl)-3-(1,1-dimethylethyl-thio)-5-(1-methylethyl))indol-2-yl]propyl urea]: the IC50 amounted to 0.18 µM in experiment [1] and 0.71 µM in experiment [2] (Homo sapiens, 0.5 h). In experiment [3], the “Percent Leukotriene inhibition” value is listed as 86%.

On to `CC(C)c1ccc2c(c1)c(SC(C)(C)C)c(CC(C)(C)C(=O)NCCNC(=O)N(C)O)n2Cc1ccc(Cl)cc1` [Example 6, N'-hydroxy-N'-methyl-N-2-[3-(1-(4-chlorophenylmethyl)-3-(1,1-dimethylethylthio)-5-(1-methylethyl)indol-2-yl)-2,2-dimethylpropionylamino]ethyl urea], for which the IC50 in experiment [1] stood at 0.15 µM; in experiment [2] (Homo sapiens, 0.5 h), 1.2 µM. Also, the “Percent Leukotriene inhibition” value in experiment [3] is 86%.

`CC(C)c1ccc2c(c1)c(SC(C)(C)C)c(CC(C)(C)C(=O)NCCC(=O)O)n2Cc1ccc(Cl)cc1` [Example 6.2]: the IC50 is 0.31 µM in experiment [1] and 1.4 µM in experiment [2] (Homo sapiens, 0.5 h).

`CC(C)c1ccc2c(c1)c(SC(C)(C)C)c(CC(C)(C)CNCCCO)n2Cc1ccc(Cl)cc1` [Example 7, 1-(4-chlorophenylmethyl)-2-[2,2-dimethyl-3-((3-hydroxypropyl)amino)propyl]-3-(1,1-dimethylethylthio)-5-(1-methylethyl)indole]: the IC50 is 4.2 µM in experiment [1] and 6.9 µM in experiment [2] (Homo sapiens, 0.5 h).

As for `CC(C)c1ccc2c(c1)c(SC(C)(C)C)c(CC(C)(C)NC(N)=O)n2Cc1ccc(Cl)cc1` [Example 8, N-2-[2-methyl-3-(1-(4-chlorophenylmethyl)-3-(1,1-dimethylethylthio)-5-(1-methylethyl)indol-2-yl)]propyl urea], the IC50 stood at 0.4 µM in experiment [1] and 5.2 µM in experiment [2] (Homo sapiens, 0.5 h).

With `CCOC(=O)CCNC(=O)NC(C)(C)Cc1c(SC(C)(C)C)c2cc(C(C)C)ccc2n1Cc1ccc(Cl)cc1` [Example 9], the “Human PMNL, inhibition of LTB4 biosynthesis, % @ 1.6” value in experiment [1] is 77%. For the same molecule, in experiment [2] (Homo sapiens, 0.5 h), the IC50 came out at 5.6 µM.

With `CC(C)c1ccc2c(c1)c(SC(C)(C)C)c(CC(C)(C)NC(=O)NCCC(=O)O)n2Cc1ccc(Cl)cc1` [Example 10], the “Human PMNL, inhibition of LTB4 biosynthesis, % @ 1.6” value in experiment [1] stood at 70%. The IC50 in experiment [2] (Homo sapiens, 0.5 h) turned out to be 2.5 µM.

`CCOC(=O)C(C)(C)Cc1c(C(=O)CCNC(=O)N(C)O)c2cc(C(C)C)ccc2n1Cc1ccc(Cl)cc1` [Example 11, N'-hydroxy-N'-methyl-N-'[1-(4-chlorophenylmethyl)-5-(1-methylethyl)-2-((2-methyl-2-ethoxycarbonyl)propyl)indol-2-yl]-3-oxopropylurea]: the values for the IC50 in experiment [1] and in experiment [2] (0.5 h) were 1.5 µM and 6.9 µM, respectively.

Regarding `CC(C)c1ccc2c(c1)c(SC(C)(C)C)c(CC(C)(C)C=NNC(=N)N)n2Cc1ccc(Cl)cc1` [Example 12, 1-(4-chlorophenylmethyl)-3-(1,1-dimethylethylthio)-2-[3-(2,2-dimethyl-1-guanidinylimino)propyl]-(1-methylethyl)indole], the “Human PMNL, inhibition of LTB4 biosynthesis, % @ 3.1” value in experiment [1] (@ 3.1 (μM)) is reported as 100%. Also, the half-inhibitory concentration (IC50) in experiment [2] (Homo sapiens, 0.5 h) is 1.3 µM.

Turning to `CC(C)c1ccc2c(c1)c(SC(C)(C)C)c(CC(C)(C)NC(=O)NCCC(=O)O)n2Cc1ccc(Cl)cc1` [Example 13, 3-[3-(1-(4-chlorophenylmethyl)-3-(1,1dimethylethylthio)-5-(1-methylethyl)indol-2-yl)-2-aminocarbonylamino-2-methylpropyl]propanoic acid, sodium salt], in experiment [2] (sodium salt), the IC50 was determined as 3 µM.

Regarding `CC(C)c1ccc2c(c1)c(SC(C)(C)C)c(CC(C)(C)C(=O)O)n2Cc1ccncc1` [Example 15, 3-[3-(1,1-dimethylethylthio)-5-(1-methylethyl)-1-(4-pyridinylmethyl)indol-2-yl]-2,2-dimethylpropanoic acid], the IC50 is 0.09 µM in experiment [1] and 0.9 µM in experiment [2] (Homo sapiens, 0.5 h).

As to `CC(C)c1ccc2c(c1)c(SC(C)(C)C)c(CC(C)(C)C(=O)O)n2Cc1cccs1` [Example 16], the IC50 in experiment [2] (Homo sapiens, 0.5 h) amounted to 5.5 µM.

`CC(C)c1ccc2c(c1)c(SC(C)(C)C)c(CC(C)(C)C=NOCC(=O)O)n2Cc1ccc(Cl)cc1` [Example 20]: the IC50 in experiment [2] (Homo sapiens, 0.5 h) was 0.68 µM. In addition, in experiment [3], the “Percent Leukotriene inhibition” value is 99%.

With `CC(C)c1ccc2c(c1)c(SC(C)(C)C)c(CC(C)(C)CN)n2Cc1ccc(Cl)cc1` [Example 21], in experiment [2] (Homo sapiens, 0.5 h), the IC50 came to 1.1 µM.

On to `CC(=O)NCC(C)(C)Cc1c(SC(C)(C)C)c2cc(C(C)C)ccc2n1Cc1ccc(Cl)cc1` [Example 22], for which the IC50 in experiment [2] (Homo sapiens, 0.5 h) is 2.1 µM.
